Measured values: patent US10131652B2, “Pyrimidinyloxy benzene derivatives as herbicides” (E. I. DU PONT DE NEMOURS AND COMPANY, priority 2014, dated 2018)

Assays:
Type in all cases: in vivo
[1] = test system: barnyardgrass (Echinochloa crus-galli); experiment: Test B pre-/postemergence plant response
Procedure, shortened: (§1)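 Greenhouse pots, loam/sand soil; compound formulated with surfactant in non-phytotoxic solvent. Preemergence soil spray and postemergence spray at 1–2 leaf stage run simultaneously. Visual injury, 0–100, about 10 days post-treatment.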

corn (Zea mays) = experiment: Test B pre-/postemergence plant response
Procedure, shortened: as §1

[2] = test system: giant foxtail (Setaria faberii); experiment: Test B pre-/postemergence plant response
Procedure, shortened: as §1

[3] = test system: pigweed (Amaranthus retroflexus); experiment: Test B pre-/postemergence plant response
Procedure, shortened: as §1

[4] = test system: wheat (Triticum aestivum); experiment: Test B pre-/postemergence plant response
Procedure, shortened: as §1

[5] = test system: barnyardgrass (Echinochloa crus-galli); experiment: Test C flooded paddy test plant response; conditions: Flood, 250 g ai/ha; scale of 0 to 100 where 0 is no effect and 100 is complete control; 13 to 15 days
Procedure, shortened: (§2)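 Scored visually on a 0–100 scale (100 = complete control) against untreated plants 13 to 15 days after treatment in the greenhouse. Compounds went into paddy water of pots flooded to 3 cm, holding 2-leaf-stage plants.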

[6] = test system: ducksalad (Heteranthera limosa); experiment: Test C flooded paddy test plant response; conditions: Flood, 250 g ai/ha; scale of 0 to 100 where 0 is no effect and 100 is complete control; 13 to 15 days
Procedure, shortened: as §2

rice (Oryza sativa) = experiment: Test C flooded paddy test plant response; conditions: Flood, 250 g ai/ha; scale of 0 to 100 where 0 is no effect and 100 is complete control; 13 to 15 days
Procedure, shortened: as §2

[7] = test system: small-flower umbrella sedge (Cyperus difformis); experiment: Test C flooded paddy test plant response; conditions: Flood, 250 g ai/ha; scale of 0 to 100 where 0 is no effect and 100 is complete control; 13 to 15 days
Procedure, shortened: as §2

[8] = test system: johnsongrass (Sorghum halepense); experiment: Test D pre-/postemergence plant response; conditions: Postemergence; for Plant response rating, Johnsongrass: scale 0 to 100, 0 no effect, 100 complete control
Procedure, shortened: (§3)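 Pre-/post-emergence greenhouse test. Pre: seeded loam+sand, sprayed same day. Post: 1–4 leaf plants (2–18 cm), peat/vermiculite mix. Formulation: non-phytotoxic solvent + surfactant. Scored visually d13–15, 0–100 vs control.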

[9] = test system: lambsquarters (Chenopodium album); experiment: Test D pre-/postemergence plant response; conditions: Postemergence; for Plant response rating, Lambsquarters: scale 0 to 100, 0 no effect, 100 complete control
Procedure, shortened: as §3

[10] = test system: morningglory (Ipomoea coccinea); experiment: Test D pre-/postemergence plant response; conditions: Postemergence; for Plant response rating, Morningglory: scale 0 to 100, 0 no effect, 100 complete control
Procedure, shortened: as §3

soybean (Glycine max) = experiment: Test D pre-/postemergence plant response; conditions: Postemergence; for Plant response rating, Soybean: scale 0 to 100, 0 no effect, 100 complete control
Procedure, shortened: as §3

[11] = test system: velvetleaf (Abutilon theophrasti); experiment: Test D pre-/postemergence plant response; conditions: Postemergence
Procedure, shortened: as §3

[12] = test system: waterhemp (common waterhemp, Amaranthus rudis); experiment: Test D pre-/postemergence plant response; conditions: Postemergence; for Plant response rating, Waterhemp: scale 0 to 100, 0 no effect, 100 complete control
Procedure, shortened: as §3

[13] = test system: winter wheat (Triticum aestivum); experiment: Test D pre-/postemergence plant response; conditions: Postemergence; for Plant response rating, Wheat: scale 0 to 100, 0 no effect, 100 complete control
Procedure, shortened: as §3

[14] = 31 g ai/ha, Preemergence, 0 to 100 scale where 0 is no effect and 100 is complete control
[15] = 125 g ai/ha, postemergence, 0 to 100 scale, 0 no effect, 100 complete control
[16] = Postemergence, 31 g ai/ha, 0 to 100 scale (0 no effect, 100 complete control)
[17] = Preemergence, 125 g ai/ha, 0 to 100 scale (0 no effect, 100 complete control)
[18] = 31 g ai/ha, scale 0 to 100 (0 no effect, 100 complete control)

SMILES: FC(F)(Br)c1cc(-c2ccccc2Oc2ncc(Cl)cn2)no1 [Compound 162]
- Plant response rating, Barnyardgrass [1, 14]: 20
- Plant response rating, Barnyardgrass [1, 15]: 90
- Plant response rating, Barnyardgrass [1, 16]: 10
- Barnyardgrass plant response rating [1, 17]: 100
- Plant response rating, Corn (corn (Zea mays); [15]): 40
- Plant response rating, Corn (corn (Zea mays); [16]): 20
- Plant response rating, Foxtail, Giant [2, 14]: 90
- Plant response rating, Foxtail, Giant [2, 15]: 90
- Plant response rating, Foxtail, Giant [2, 16]: 10
- Foxtail, Giant plant response rating [2, 17]: 100
- Plant response rating, Pigweed [3, 14]: 80
- Plant response rating, Pigweed [3, 15]: 100
- Plant response rating, Pigweed [3, 16]: 100
- Pigweed plant response rating [3, 17]: 100
- Plant response rating, Wheat [4, 15]: 30
- Plant response rating, Wheat [4, 16]: 20
- Barnyardgrass plant response rating [5]: 0
- Ducksalad plant response rating [6]: 0
- Rice plant response rating (rice (Oryza sativa)): 0
- Sedge, Umbrella plant response rating [7]: 0
- Johnsongrass plant response rating [8, 18]: 5
- Plant response rating, Johnsongrass ([8]; 62 g ai/ha): 10
- Plant response rating, Johnsongrass ([8]; 125 g ai/ha): 20
- Lambsquarters plant response rating [9, 18]: 65
- Plant response rating, Lambsquarters ([9]; 62 g ai/ha): 75
- Plant response rating, Lambsquarters ([9]; 125 g ai/ha): 95
- Morningglory plant response rating [10, 18]: 65
- Plant response rating, Morningglory ([10]; 62 g ai/ha): 75
- Plant response rating, Morningglory ([10]; 125 g ai/ha): 75
- Soybean plant response rating (soybean (Glycine max); [18]): 10
- Plant response rating, Soybean (soybean (Glycine max); 62 g ai/ha): 40
- Plant response rating, Soybean (soybean (Glycine max); 125 g ai/ha): 50
- Velvetleaf plant response rating [11, 18]: 40
- Plant response rating, Velvetleaf ([11]; 62 g ai/ha, scale 0 to 100, 0 no effect, 100 complete control): 75
- Waterhemp plant response rating [12, 18]: 98
- Plant response rating, Waterhemp ([12]; 62 g ai/ha): 100
- Plant response rating, Waterhemp ([12]; 125 g ai/ha): 100
- Wheat plant response rating [13, 18]: 0
- Plant response rating, Wheat ([13]; 62 g ai/ha): 5
- Plant response rating, Wheat ([13]; 125 g ai/ha): 5
